In patent US7658954B2, “Synergistic antipyretic formulation” (Council of Scientific & Industrial Research, priority 2004, dated 2010):
Marks after values point to notes of the source that are not given here.

System: yeast induced pyrexia
Assay: Antipyretic effect on yeast induced pyrexia in rats
Type: in vivo
Settings: Paracetamol 150 mg/kg

SMILES: CC(=O)Nc1ccc(O)cc1 [Paracetamol]
- Rectal temperature before and after treatment (0 h): 37.7 ± 0.2 °C
- Rectal temperature before and after treatment (1 h): 39.0 ± 0.2 °C
- Rectal temperature before and after treatment (2 h): 38.1 ± 0.3 °C
- Rectal temperature before and after treatment (3 h): 37.7 ± 0.2^b ° C.
- Rectal temperature before and after treatment (4 h): 37.6 ± 0.2 °C
